Results on 16 compounds are retold here after patent publication US20230093861A1, “RAPAMYCIN ANALOGS AS MTOR INHIBITORS” (Revolution Medicines, Inc., priority 2017, published 2023).

Where two headings read alike, the source gives them in different places.

In experiment [1] the test system is P-4E-BP1 (T37/46). The experiment is described as follows: Cell based AlphaLISA assay, inhibition of P-4E-BP1 (T37/46) (mTORC1 substrate phosphorylation) in MDA-MB-468 cells. The note with it: Homo sapiens, AlphaLISA, two to four hours at 37° C., read-out: pIC50 for Inhibition of mTORC1 and mTORC2 Substrate Phosphorylation, P-4E-BP1-(T37/46) (converted). In short, it runs like this:
(§1)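 After treatment, cells were lysed in the kit's buffer once assay medium was withdrawn. Duplicate Alpha measurements tracked each phospho-epitope, and dose-response data were fitted to IC50 following normalization to control wells.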
On the technique in general: Bead proximity is the source of the signal in Alpha formats.

Experiment [2] has as its system P-P70S6K (T389). In words: Cell based AlphaLISA assay, inhibition of P-P70S6K (T389) (mTORC1 substrate phosphorylation) in MDA-MB-468 cells. The following applies: Homo sapiens, 4 h, AlphaLISA, two to four hours at 37° C., read-out: pIC50 for Inhibition of mTORC1 and mTORC2 Substrate Phosphorylation, P-P70S6K-(T389) (converted). In short, it runs like this:
as §1

The subject of experiment [3] is P-Akt (S473). The experiment is described as follows: Cell based AlphaLISA assay, inhibition of P-Akt (S473) (mTORC2 substrate phosphorylation) in MDA-MB-468 cells. The following applies: Homo sapiens, AlphaLISA, two to four hours at 37° C., read-out: pIC50 for Inhibition of mTORC1 and mTORC2 Substrate Phosphorylation, p-AKT 1/2/3 -(S473) (converted). In short, it runs like this:
as §1

Turning to `CO[C@H]1C[C@@H]2CC[C@@H](C)[C@@](O)(O2)C(=O)C(=O)N2CCCC[C@H]2C(=O)O[C@H]([C@H](C)C[C@@H]2CC[C@@H](OCCCCc3cn(CCOCCOCCOCCOCCOCCOCCOCCOCCC(=O)NCCCCn4nc(-c5cc6cc(O)ccc6[nH]5)c5c(N)ncnc54)nn3)[C@H](OC)C2)CC(=O)[C@H](C)/C=C(\C)[C@@H](O)[C@@H](OC)C(=O)[C@H](C)C[C@H](C)/C=C/C=C/C=C/1C` [Example 42], the IC50 was < 3.16 nM in experiment [1] (4 h), < 1 nM in experiment [2] and 3.16 to 31.6 nM in experiment [3] (4 h).

Take `CO[C@H]1C[C@@H]2CC[C@@H](C)[C@@](O)(O2)C(=O)C(=O)N2CCCC[C@H]2C(=O)O[C@H]([C@H](C)C[C@@H]2CC[C@@H](OCCCCc3cn(CCOCCOCCOCCOCCOCCOCCC(=O)NCCCCn4nc(-c5cc6cc(O)ccc6[nH]5)c5c(N)ncnc54)nn3)[C@H](OC)C2)CC(=O)[C@H](C)/C=C(\C)[C@@H](O)[C@@H](OC)C(=O)[C@H](C)C[C@H](C)/C=C/C=C/C=C/1C` [Example 43]: the IC50 in experiment [1] (4 h) is 31.6 to 1000 nM; in experiment [2], < 1 nM; in experiment [3] (4 h), 31.6 to 1000 nM.

As for `COc1ccc(-c2ccc3ncc4c(c3c2)n(-c2ccc(N3CCN(C(=O)CCOCCOCCOCCOCCOCCOCCn5cc(CCCCO[C@@H]6CC[C@@H](C[C@@H](C)[C@@H]7CC(=O)[C@H](C)/C=C(\C)[C@@H](O)[C@@H](OC)C(=O)[C@H](C)C[C@H](C)/C=C/C=C/C=C(\C)[C@@H](OC)C[C@@H]8CC[C@@H](C)[C@@](O)(O8)C(=O)C(=O)N8CCCC[C@H]8C(=O)O7)C[C@H]6OC)nn5)CC3)c(C(F)(F)F)c2)c(=O)n4C)cn1` [Example 44], the IC50 in experiment [1] (4 h) is < 3.16 nM; in experiment [2] it was < 1 nM; in experiment [3] (4 h) it was < 3.16 nM.

Take `CO[C@H]1C[C@@H]2CC[C@@H](C)[C@@](O)(O2)C(=O)C(=O)N2CCCC[C@H]2C(=O)O[C@H]([C@H](C)C[C@@H]2CC[C@@H](OCc3cccc(-c4cnc(N5CCN(C(=O)CCc6cn(CCOCCOCCOCCC(=O)NCCCCn7nc(-c8ccc9oc(N)nc9c8)c8c(N)ncnc87)nn6)CC5)nc4)c3)[C@H](OC)C2)CC(=O)[C@H](C)/C=C(\C)[C@@H](O)[C@@H](OC)C(=O)[C@H](C)C[C@H](C)/C=C/C=C/C=C/1C` [Example 46]: the IC50 was < 3.16 nM in experiment [1] (MDA-MB-468, 4 h); < 1 nM in experiment [2]; 3.16 to 31.6 nM in experiment [3] (MDA-MB-468, 4 h).

As to `CO[C@H]1C[C@@H]2CC[C@@H](C)[C@@](O)(O2)C(=O)C(=O)N2CCCC[C@H]2C(=O)O[C@H]([C@H](C)C[C@@H]2CC[C@@H](OCc3cccc(-c4cnc(N5CCN(C(=O)CCc6cn(CCOCCOCCC(=O)NCCCCn7nc(-c8ccc9oc(N)nc9c8)c8c(N)ncnc87)nn6)CC5)nc4)c3)[C@H](OC)C2)CC(=O)[C@H](C)/C=C(\C)[C@@H](O)[C@@H](OC)C(=O)[C@H](C)C[C@H](C)/C=C/C=C/C=C/1C` [Example 47], the IC50 in experiment [1] (MDA-MB-468, 4 h) is < 3.16 nM; in experiment [2] it was < 1 nM; in experiment [3] (MDA-MB-468, 4 h), 3.16 to 31.6 nM.

In the case of `CO[C@H]1C[C@@H]2CC[C@@H](C)[C@@](O)(O2)C(=O)C(=O)N2CCCC[C@H]2C(=O)O[C@H]([C@H](C)C[C@@H]2CC[C@H](n3nncc3-c3cccc(-c4cnc(N5CCN(C(=O)CCc6cn(CCOCCOCCOCCC(=O)NCCCCn7nc(-c8ccc9oc(N)nc9c8)c8c(N)ncnc87)nn6)CC5)nc4)c3)[C@H](OC)C2)CC(=O)[C@H](C)/C=C(\C)[C@@H](O)[C@@H](OC)C(=O)[C@H](C)C[C@H](C)/C=C/C=C/C=C/1C` [Example 48], the IC50 in experiment [1] (MDA-MB-468, 4 h) was < 3.16 nM; in experiment [2], < 1 nM; in experiment [3] (MDA-MB-468, 4 h) it was 3.16 to 31.6 nM.

Take `CO[C@H]1C[C@@H]2CC[C@@H](C)[C@@](O)(O2)C(=O)C(=O)N2CCCC[C@H]2C(=O)O[C@H]([C@H](C)C[C@@H]2CC[C@H](n3nncc3-c3cccc(-c4cnc(N5CCN(C(=O)CCc6cn(CCOCCOCCC(=O)NCCCCn7nc(-c8ccc9oc(N)nc9c8)c8c(N)ncnc87)nn6)CC5)nc4)c3)[C@H](OC)C2)CC(=O)[C@H](C)/C=C(\C)[C@@H](O)[C@@H](OC)C(=O)[C@H](C)C[C@H](C)/C=C/C=C/C=C/1C` [Example 49]: the IC50 in experiment [1] (MDA-MB-468, 4 h) was < 3.16 nM; in experiment [2], < 1 nM; in experiment [3] (MDA-MB-468, 4 h) it was 31.6 to 1000 nM.

For the compound `CO[C@H]1C[C@@H]2CC[C@@H](C)[C@@](O)(O2)C(=O)C(=O)N2CCCC[C@H]2C(=O)O[C@H]([C@H](C)C[C@@H]2CC[C@@H](O)[C@H](OC)C2)C[C@@H](O)[C@H](C)/C=C(\C)[C@@H](O)[C@@H](OC)C(=NOCc2cn(CCOCCOCCOCCOCCOCCOCCOCCOCCC(=O)NCCCCn3nc(-c4ccc5oc(N)nc5c4)c4c(N)ncnc43)nn2)[C@H](C)C[C@H](C)/C=C/C=C/C=C/1C` [Example 50], the IC50 in experiment [1] (MDA-MB-468, 4 h) is 3.16 to 31.6 nM; in experiment [2] it was 1 to 10 nM; in experiment [3] (MDA-MB-468, 4 h) it was 31.6 to 1000 nM.

On to `CO[C@H]1C[C@@H]2CC[C@@H](C)[C@@](O)(O2)C(=O)C(=O)N2CCCC[C@H]2C(=O)O[C@H]([C@H](C)C[C@@H]2CC[C@@H](O)[C@H](OC)C2)C[C@@H](O)[C@H](C)/C=C(\C)[C@@H](O)[C@@H](OC)C(=NOCc2cn(CCOCCOCCOCCOCCOCCOCCC(=O)NCCCCn3nc(-c4ccc5oc(N)nc5c4)c4c(N)ncnc43)nn2)[C@H](C)C[C@H](C)/C=C/C=C/C=C/1C` [Example 51], for which the IC50 in experiment [1] (MDA-MB-468, 4 h) is 3.16 to 31.6 nM; in experiment [2], 1 to 10 nM; in experiment [3] (MDA-MB-468, 4 h) it was 31.6 to 1000 nM.

For the compound `COc1ccc(-c2ccc3ncc4c(c3c2)n(-c2ccc(N3CCN(C(=O)CCOCCOCCOCCOCCOCCOCCn5cc(CON=C6[C@H](C)C[C@H](C)/C=C/C=C/C=C(\C)[C@@H](OC)C[C@@H]7CC[C@@H](C)[C@@](O)(O7)C(=O)C(=O)N7CCCC[C@H]7C(=O)O[C@H]([C@H](C)C[C@@H]7CC[C@@H](O)[C@H](OC)C7)C[C@@H](O)[C@H](C)/C=C(\C)[C@@H](O)[C@H]6OC)nn5)CC3)c(C(F)(F)F)c2)c(=O)n4C)cn1` [Example 52], the IC50 in experiment [1] (MDA-MB-468, 4 h) is 3.16 to 31.6 nM; in experiment [2], < 1 nM; in experiment [3] (MDA-MB-468, 4 h), 3.16 to 31.6 nM.

Turning to `CO[C@H]1C[C@@H]2CC[C@@H](C)[C@@](O)(O2)C(=O)C(=O)N2CCCC[C@H]2C(=O)O[C@H]([C@H](C)C[C@@H]2CC[C@@H](OCCOCc3cn(CCOCCOCCOCCOCCOCCOCCOCCOCCC(=O)NCCCCn4nc(-c5cc6cc(O)ccc6[nH]5)c5c(N)ncnc54)nn3)[C@H](OC)C2)CC(=O)[C@H](C)/C=C(\C)[C@@H](O)[C@@H](OC)C(=O)[C@H](C)C[C@H](C)/C=C/C=C/C=C/1C` [Example 53], the IC50 in experiment [1] (4 h) was < 3.16 nM; in experiment [2], < 1 nM; in experiment [3] (4 h), 3.16 to 31.6 nM.

As for `CO[C@H]1C[C@@H]2CC[C@@H](C)[C@@](O)(O2)C(=O)C(=O)N2CCCC[C@H]2C(=O)O[C@H]([C@H](C)C[C@@H]2CC[C@@H](OCCOCc3cn(CCOCCOCCOCCOCCOCCOCCC(=O)N4CC(Cn5nc(-c6ccc7oc(N)nc7c6)c6c(N)ncnc65)C4)nn3)[C@H](OC)C2)CC(=O)[C@H](C)/C=C(\C)[C@@H](O)[C@@H](OC)C(=O)[C@H](C)C[C@H](C)/C=C/C=C/C=C/1C` [Example 57], the IC50 in experiment [1] (MDA-MB-468, 4 h) was < 3.16 nM; in experiment [2] it was < 1 nM; in experiment [3] (MDA-MB-468, 4 h), 3.16 to 31.6 nM.

Regarding `CO[C@H]1C[C@@H]2CC[C@@H](C)[C@@](O)(O2)C(=O)C(=O)N2CCCC[C@H]2C(=O)O[C@H]([C@H](C)C[C@@H]2CC[C@@H](OCCC(C)(C)Cc3cn(CCOCCOCCOCCOCCOCCOCCOCCOCCC(=O)NCCCCn4nc(-c5ccc6oc(N)nc6c5)c5c(N)ncnc54)nn3)[C@H](OC)C2)CC(=O)[C@H](C)/C=C(\C)[C@@H](O)[C@@H](OC)C(=O)[C@H](C)C[C@H](C)/C=C/C=C/C=C/1C` [Example 58], the IC50 in experiment [1] (MDA-MB-468, 4 h) was < 3.16 nM; in experiment [2], < 1 nM; in experiment [3] (MDA-MB-468, 4 h), < 3.16 nM.

With `CO[C@H]1C[C@@H]2CC[C@@H](C)[C@@](O)(O2)C(=O)C(=O)N2CCCC[C@H]2C(=O)O[C@H]([C@H](C)C[C@@H]2CC[C@@H](OCCC(C)(C)Cc3cn(CCOCCOCCOCCOCCOCCOCCC(=O)NCCCCn4nc(-c5ccc6oc(N)nc6c5)c5c(N)ncnc54)nn3)[C@H](OC)C2)CC(=O)[C@H](C)/C=C(\C)[C@@H](O)[C@@H](OC)C(=O)[C@H](C)C[C@H](C)/C=C/C=C/C=C/1C` [Example 59], the IC50 in experiment [1] (MDA-MB-468, 4 h) was < 3.16 nM; in experiment [2] it was < 1 nM; in experiment [3] (MDA-MB-468, 4 h) it was 3.16 to 31.6 nM.

Turning to `CO[C@H]1C[C@@H]2CC[C@@H](C)[C@@](O)(O2)C(=O)C(=O)N2CCCC[C@H]2C(=O)O[C@H]([C@H](C)C[C@@H]2CC[C@@H](OC(=O)NCc3cn(CCOCCOCCOCCOCCOCCOCCC(=O)NCCCCn4nc(-c5ccc6oc(N)nc6c5)c5c(N)ncnc54)nn3)[C@H](OC)C2)CC(=O)[C@H](C)/C=C(\C)[C@@H](O)[C@@H](OC)C(=O)[C@H](C)C[C@H](C)/C=C/C=C/C=C/1C` [Example 60], the IC50 is < 3.16 nM in experiment [1] (MDA-MB-468, 4 h); < 1 nM in experiment [2]; 3.16 to 31.6 nM in experiment [3] (MDA-MB-468, 4 h).

Take `CO[C@H]1C[C@@H]2CC[C@@H](C)[C@@](O)(O2)C(=O)C(=O)N2CCCC[C@H]2C(=O)O[C@H]([C@H](C)C[C@@H]2CC[C@@H](OC(=O)NCc3cn(CCOCCOCCOCCOCCOCCOCCOCCOCCC(=O)NCCCCn4nc(-c5ccc6oc(N)nc6c5)c5c(N)ncnc54)nn3)[C@H](OC)C2)CC(=O)[C@H](C)/C=C(\C)[C@@H](O)[C@@H](OC)C(=O)[C@H](C)C[C@H](C)/C=C/C=C/C=C/1C` [Example 61]: the IC50 in experiment [1] (MDA-MB-468, 4 h) was 3.16 to 31.6 nM; in experiment [2], 1 to 10 nM; in experiment [3] (MDA-MB-468, 4 h), 3.16 to 31.6 nM.
